US10640767B2, “Assay for exo-site binding molecules” (President and Fellows of Harvard College, priority 2016, dated 2020)

Biological target: T1, Recombinant His6-tagged IDE (Homo sapiens, UniProt P14735)
T1 construct: made in house; host or cells: E. coli Rosetta 2 (DE3) pLysS, plasmid pTrcHis-A
T1 sequence (P14735 42-1019): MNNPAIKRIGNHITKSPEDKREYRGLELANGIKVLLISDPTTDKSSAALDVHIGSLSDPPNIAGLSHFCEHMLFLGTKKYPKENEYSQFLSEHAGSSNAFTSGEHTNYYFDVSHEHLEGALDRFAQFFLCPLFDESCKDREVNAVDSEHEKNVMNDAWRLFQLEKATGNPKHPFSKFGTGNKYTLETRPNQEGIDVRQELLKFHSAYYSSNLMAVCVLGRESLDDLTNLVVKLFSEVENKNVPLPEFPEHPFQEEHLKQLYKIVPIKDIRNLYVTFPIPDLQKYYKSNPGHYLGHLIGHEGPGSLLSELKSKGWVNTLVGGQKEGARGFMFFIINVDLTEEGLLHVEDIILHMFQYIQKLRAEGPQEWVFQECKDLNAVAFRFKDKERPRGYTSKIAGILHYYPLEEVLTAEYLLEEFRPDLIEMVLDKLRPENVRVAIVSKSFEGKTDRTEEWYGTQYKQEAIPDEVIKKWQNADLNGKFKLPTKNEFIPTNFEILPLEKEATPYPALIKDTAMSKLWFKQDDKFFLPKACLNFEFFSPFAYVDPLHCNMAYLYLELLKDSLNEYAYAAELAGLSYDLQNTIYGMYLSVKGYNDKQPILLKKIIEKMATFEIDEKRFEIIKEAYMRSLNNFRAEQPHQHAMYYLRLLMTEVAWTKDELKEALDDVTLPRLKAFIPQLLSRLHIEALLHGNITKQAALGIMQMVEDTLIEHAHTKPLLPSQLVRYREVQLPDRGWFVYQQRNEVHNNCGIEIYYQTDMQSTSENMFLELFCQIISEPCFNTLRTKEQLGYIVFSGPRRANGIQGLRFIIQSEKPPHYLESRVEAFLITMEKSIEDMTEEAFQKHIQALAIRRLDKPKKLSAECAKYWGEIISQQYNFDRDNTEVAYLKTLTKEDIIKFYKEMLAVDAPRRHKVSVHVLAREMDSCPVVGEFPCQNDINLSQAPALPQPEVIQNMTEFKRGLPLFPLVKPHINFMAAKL
Experiment: IDE protease activity assay with fluorogenic peptide substrate Mca-RPPGFSAFK(Dnp)-OH
Assay type: biochemical
Conditions: inhibitor 20 μM final; purified recombinant His6-tagged IDE proteins
Protocol: Recombinant His6-tagged IDE and IDE-A479L were purified by Ni(II)-affinity chromatography (IMAC sepharose beads, GE Healthcare®) according to the manufacturer's instructions. The cell pellets were resuspended in pH 8.0 buffer containing 50 mM phosphate, 300 mM NaCl, 10 mM imidazole, 1% Triton X-100 and 1 mM tris(2-carboxyethyl)phosphine hydrochloride (TCEP), and were lysed by probe sonication for 4 min at <4° C., followed by clearing of cell debris by centrifugation at 10,000 g for 25 min at 4° C. The supernatant was incubated with Ni(II)-doped IMAC resin (2 mL) for 3 h at 4° C. The resin was washed twice with the cell resuspension/lysis buffer, and three times with pH 8.0 buffer containing 50 mM phosphate, 300 mM NaCl, 50 mM imidazole and 1 mM TCEP. Elution was performed in 2 mL aliquots by raising the imidazole concentration to 250 mM and subsequently to 500 mM in the previous buffer. The fractions were combined and the buffer was exchanged to the recommended IDE buffer (R&D) using spin columns with 100 KDa molecular weight cut off membranes (Millipore). Protein yields were typically ˜10 μg/L, and >90% purity based on gel electrophoresis analysis (Coomassie stained).

## NCCCC[C@@H]1NC(=O)/C=C/C(=O)N[C@H](C(N)=O)CCCCNC(=O)[C@@H](Cc2ccc(C(=O)c3ccccc3)cc2)NC(=O)[C@H](CC2CCCCC2)NC1=O [6bK]
  IDE-specific protease activity as assessed by inhibition of degradation of peptide substrate Mca-RPPGFSAFK(Dnp)-OH: > 95%
